Where a name gives a salt, the structure may show the parent alone.
What was measured:
[1] = tested on: viable CD8+ population; experiment: In vitro T cell culture compound screen, flow cytometry for cells co-expressing CCR7 and CD62L in CD8+ cells; assay type: cell-based, human; details: 10 μM, about 6 days; for CD8 Hit: anti-CD3/anti-CD28 beads, hit criteria: Z-score > +2 for percent or relative absolute number of CCR7+CD62L+ cells; for number or ratio of cells co-expressing CCR7 and CD62L: viable CD8+ population
From the text: (§1) In Vitro T Cell Culture. Fresh leukopaks (AllCells, Alameda, CA) were obtained from healthy donors, from which T cells were negatively selected using the EasySep Human T Cell Enrichment Kit (Stem Cell Technologies, Vancouver, Canada). The freshly isolated T cells were aliquoted and cryopreserved. On the day the screens were initiated, T cells were thawed and washed into X-Vivo 15 with 5% human AB serum, IL-2, pen/strep, and additional supplements. Cells were dispensed into flat-bottom 384-well plates at 5×10^5 cells/ml with anti-CD3/Anti-CD28 dynabeads (ThermoFisher, Waltham, MA) at a 3:1 bead-to-cell ratio. Individual compounds were added at a final concentration of 10 μM to each well from column 3 to column 22 of each plate. Positive and negative controls were added to additional wells. Cells were incubated for about 6 days at 37 degrees with 5% CO2.
(§2) Flow Cytometry. On Day 6 of culture, cells were stained with a fixable viability marker and fluorophore-conjugated antibodies: CD3, CD4, CD8, CD45RA, CD45RO, CD62L, CCR7, CD27, and CD122 (BD Biosciences, San Jose, CA; and BioLegend, San Diego, CA). Fluorescent absolute counting beads (Spherotech, Lake Forest, IL) were added just prior to acquisition. Data acquisition was performed on a BD Fortessa X-20 (BD Biosciences) and data were analyzed using Treestar software (FlowJo, Ashland, OR) and Spotfire (Tibco, Boston, MA).
(§3) These cells are characterized by expression of CCR7 and CD62L. Therefore, cells co-expressing both of these identifying markers were evaluated. Within the viable CD4+ population and viable CD8+ population, the percent of cells co-expressing CCR7 and CD62L was determined. The expression of either CD62L or CCR7 on T cells, as indicative of the desired T cell subsets, have been described as having favorable functional characteristics for CAR-T cell therapy, and potentially other adoptive T cell therapies.
(§4) The number of events in each of these gates relative to the number of absolute counting beads in each sample was calculated, defining a relative measure of the absolute number of naïve, stem cell memory, or central memory T cells within the CD4+ and/or CD8+ populations. A z-Score relative to the screened compound samples within each 384-well plate was calculated for each of these four values: 1) percent CCR7+CD62L+ in CD4+, 2) percent CCR7+CD62L+ in CD8+, 3) absolute relative number of CCR7+CD62L+ in CD4+, and 4) absolute relative number of CCR7+CD62L+ in CD8+(FIGS. 1A and 1i). Z-scores were also calculated for the percent viability of all cells within each sample and the relative absolute number of cells within each sample. A “Z-Score” is a statistical measurement of a score's relationship to the mean in a group of scores. A Z-score of 0 means the score is the same as the mean. A Z-score can also be positive or negative, indicating whether it is above or below the mean and by how many standard deviations.

[2] = tested on: viable CD4+ population; experiment: In vitro T cell culture compound screen, flow cytometry for cells co-expressing CCR7 and CD62L in CD4+ cells; assay type: cell-based, human; details: 10 μM, about 6 days; for CD4 Hit: anti-CD3/anti-CD28 beads, hit criteria: Z-score > +2 for percent or relative absolute number of CCR7+CD62L+ cells; for number or ratio of cells co-expressing CCR7 and CD62L: viable CD4+ population
From the text: as §1, §2, §3, §4

[3] = tested on: K562-CD19; experiment: Secondary tumor rechallenge of mice that survived primary tumor challenge; assay type: in vivo, NSG mice; details: 21 day post challenge with secondary tumor
[4] = tested on: Nalm-6-luc; experiment: In vivo tumor clearance by compound-treated CAR-T cells in tumor-bearing NSG mice; details: 0.2×10^6 CD4 and CD8 CAR-T cells 1:1, retroorbital, one week after tumor injection
Experimental: CAR-T cells were generated from CD4+ and CD8+ T cells that were separately activated and expanded in vitro. The cells were transduced with the CAR-2 construct (FIG. 2) one day after activation and then replated into 24-well GREX plates with or without the compounds. Half the media was replaced every two days thereafter until harvest one week post-activation. One week after tumor injection, the NSG mice were treated with 0.2×10^6 CD4 and CD8 CAR-T cells mixed at a 1:1 ratio via retroorbital injection. The mice were imaged periodically to determine tumor burden.

[5] = tested on: CD8 T cells; experiment: CD27 cell surface expression on CAR-transduced CD8 T cells by flow cytometry; assay type: cell-based, human; details: 20 nM rapa, 10 μM dmPGE2 or both; day 8; two donors; relative to vehicle (DMSO)
Experimental: (§5) In order to perform these studies, isolated CD8 T cells were activated in bulk on day 0 using CTS (Cell Therapy Systems) Dynabeads™ CD3/CD28 (Thermo Fisher Scientific, Waltham, MA) in T cell media supplemented with IL-2. On day 1, cells were transduced with the CAR Construct 1 shown in FIG. 2 and cell density was adjusted to 0.5×10^6/ml and 10^6 cells were seeded into 12 well plates in the presence of vehicle, 20 nM rapa, 10 μM dmPGE2 or both compounds at the same concentrations. On day 4, cells were transferred into 6-well plates and 2 ml of media was added to each well. On day 6 another 2 ml of media was added to each well. On day 8, cells were analyzed on a flow cytometer for cell surface expression of CD27.

[6] = tested on: CD8 CAR-T cells; experiment: Exhaustion marker (PD-1, Tim-3) expression on CAR-T cells by flow cytometry; assay type: cell-based, human; details: 20 nM rapa, 10 μM dmPGE2 or both; two donors; relative to vehicle
From the text: T cell dysfunction due to ‘exhaustion’ is a state that can preclude adequate control of cancer or infection.

[7] = tested on: CD8+ T-cells; experiment: Gene panel expression changes on Affymetrix human transcriptome arrays; assay type: cell-based; details: fold change relative to vehicle treatment
Experimental: In order to perform these studies, isolated CD8 T cells were activated in bulk on day 0 using CTS (Cell Therapy Systems) Dynabeads™ CD3/CD28 (Thermo Fisher Scientific, Waltham, MA) in T cell media supplemented with IL-2. On day 1, cells were transduced with the CAR Construct 1 shown in FIG. 2 and cell density was adjusted to 0.5×10^6/ml and 10^6 cells were seeded into 12 well plates in the presence of vehicle, 20 nM rapa, 10 μM dmPGE2 or both compounds at the same concentrations. On day 4, cells were transferred into 6-well plates and 2 ml of media was added to each well. On day 6 another 2 ml of media was added to each well.
The RNA was analyzed on Affymetrix human transcriptome arrays and fold changes (relative to vehicle treatment) of the genes in the panel were determined.

[8] = tested on: Nalm6 tumor cells; experiment: In vitro serial killing assay of CAR-T cells co-cultured with tumor cells; assay type: cell-based, human; details: three rounds of in vitro killing
From the text: An in vitro serial killing assay, where CAR-T cells are allowed to “clear” tumor cells in vitro over multiple rounds, is a model that can assess CAR-T expansion in the presence of tumor cells that express the antigen recognized by the CAR. […] After thawing, the CAR-T cells were co-cultured with Nalm6 tumor cells that express endogenous CD19 and transgenic mKate2, a far-red fluorescent protein. Expression of eGFP in the CAR-T cells and mKate2 in the Nalm6 target cells allows easy and reliable identification and counting of both cell types in the serial killing assay. Prior to starting each round of killing, cell numbers were adjusted so that the same ratio of CAR-T cell to Nalm6 target cell was maintained across the CAR-T cell cultures generated from different compound treatments.

[9] = tested on: CD8+ T-cells; experiment: Genome-wide expression on Human Transcriptome Array microarray chips; details: 20 nM rapa, 10 μM dmPGE2 or both
Experimental: as §5

Compound | CD8 Hit [1] | number or ratio of cells co-expressing CCR7 and CD62L [1] | CD4 Hit [2] | also measured
2-Naphthacenecarboxamide, 7-chloro-4-(dimethylamino)-1,4,4a,5,5a,6,11,12a-octahy | CD8 | increased |  | 
CCC(CO)Nc1nc(NCc2ccccc2)c2ncn(C(C)C)c2n1 (stereo in doubt) [Roscovitine, (S)-Isomer] |  | increased | CD4 | 
CCCc1c(-c2ccc(O)cc2)nn(-c2ccc(O)cc2)c1-c1ccc(O)cc1 [1,3,5-tris(4-hydroxyphenyl)-4-propyl-1H-pyrazole] |  | increased | CD4 | 
N.S=C(S)N1CCCC1 [1-Pyrrolidinecarbodithioic acid, ammonium salt] |  | increased | CD4 | 
Nc1ncn([C@@H]2O[C@H](CO)[C@@H](O)[C@H]2O)c(=O)n1 [5-Azacytidine] | CD8 | increased | CD4 | number or ratio of cells co-expressing CCR7 and CD62L [2]: increased
Sc1ncnc2nc[nH]c12 [6-Mercaptopurine] | CD8 | increased | CD4 | number or ratio of cells co-expressing CCR7 and CD62L [2]: increased
Oc1c(Cl)cc(Cl)c2cccnc12 [8-Quinolinol,5,7-dichloro-] | CD8 | increased | CD4 | number or ratio of cells co-expressing CCR7 and CD62L [2]: increased
Oc1c(I)cc(Cl)c2cccnc12 [8-Quinolinol,5-chloro-7-iodo-] | CD8 | increased | CD4 | number or ratio of cells co-expressing CCR7 and CD62L [2]: increased
CC[n+]1c(/C=C/C=C2/N(C)c3ccccc3C2(C)C)sc2ccccc21.[I-] [AC-93253 iodide] | CD8 | increased | CD4 | number or ratio of cells co-expressing CCR7 and CD62L [2]: increased
COc1ccc(-c2cc3nccn3c(Nc3ncccc3C(N)=O)n2)cc1OC [BAY 61-3606] |  | increased | CD4 | 
COc1cc2nc(N3CCCN(C)CC3)nc(NC3CCN(Cc4ccccc4)CC3)c2cc1OC [BIX01294] |  | increased | CD4 | 
CC[N+](C)(C)c1cccc(O)c1 [Edrophonium chloride] | CD8 | increased |  | 
C[C@]12CC[C@@H]3c4ccc(O)cc4C[C@@H](CCCCCCCCC[S+]([O-])CCCC(F)(F)C(F)(F)F)[C@H]3[C@@H]1CC[C@@H]2O (some centres unmarked) [Fulvestrant] | CD8 | increased |  | 
CC(C)C1CCC2(CO2)C2C(=O)OCC(C(=O)O)=CC12 (centres unmarked) [Heptelidic acid] | CD8 | increased | CD4 | number or ratio of cells co-expressing CCR7 and CD62L [2]: increased
O=C(N/N=C/c1ccc([N+](=O)[O-])o1)c1ccc(O)cc1 [Nifuroxazide] | CD8 | increased |  | 
C=CCc1cccc(/C=N/NC(=O)CN2CCN(Cc3ccccc3)CC2)c1O [PAC-1] |  | increased | CD4 | 
Oc1cccc(-c2nc(N3CCOCC3)c3oc4ncccc4c3n2)c1 [PI-103] | CD8 |  | CD4 | mice with no detectable tumor [3]: 60%
C=CC1=C(C)c2cc3[nH]c(cc4nc(cc5[nH]c(cc1n2)c(C)c5CCC(=O)O)C(CCC(=O)O)=C4C)c(C)c3C=C [Protoporphyrin IX disodium] |  | increased | CD4 | 
CN(C)c1ccc(C=C2C(=O)Nc3ccccc32)cc1 [SU 4312] | CD8 | increased |  | 
CN[C@H]1CC[C@@H](c2ccc(Cl)c(Cl)c2)c2ccccc21 [Sertraline] | CD8 |  | CD4 | 
Nc1cccc(-c2cc3c(Oc4cccc(O)c4)ncnc3[nH]2)c1 [TWS119] |  |  |  | tumor clearance / tumor control by treated CAR-T cells [4]: minimal tumor control
CCCc1nc2c(C)cc(-c3nc4ccccc4n3C)cc2n1Cc1ccc(-c2ccccc2C(=O)O)cc1 [Telmisartan] |  | increased | CD4 | 
CC(C)(C)c1ccc(C(O)CCCN2CCC(C(O)(c3ccccc3)c3ccccc3)CC2)cc1 (centres unmarked) [Terfenadine] |  | increased | CD4 | 
C/C=C(/C)C(=O)O[C@H]1C(C)=C2[C@H]([C@@H]1OC(=O)CCCCCCC)[C@@](C)(OC(C)=O)C[C@H](OC(=O)CCC)[C@@]1(O)[C@H]2OC(=O)[C@@]1(C)O [Thapsigargin] | CD8 | increased |  | 
O=C(O)Cc1cc(I)c(Oc2ccc(O)c(I)c2)c(I)c1 [Tiratricol] | CD8 | increased | CD4 | number or ratio of cells co-expressing CCR7 and CD62L [2]: increased
NC1CCN(c2nc3c(cc2F)c(=O)c(C(=O)O)cn3-c2ccc(F)cc2F)C1 (centres unmarked) [Tosufloxacin hydrochloride] |  | increased | CD4 | 
N#CC(=C(/N)Sc1ccccc1N)/C(C#N)=C(\N)Sc1ccccc1N [U0126] |  | increased | CD4 | tumor clearance / tumor control by treated CAR-T cells [4]: minimal tumor control
CCCCC(C)(C)[C@H](O)/C=C/[C@H]1[C@H](O)CC(=O)[C@@H]1C/C=C\CCCC(=O)O [dmPGE2, 16,16-dimethyl Prostaglandin E2] |  |  |  | CD27 expression, relative MFI (vehicle defined as 1) [5]: no increase; PD-1 expression [6]: decreased; Tim-3 expression [6]: no effect; BLIMP-1 expression [7]: slightly upregulated; clearing of target cells over time by previously treated CAR-T cells [8]: successfully cleared target cells; total number of genes down-regulated more than 2 fold compared to vehicle control [9]: 38; total number of genes up-regulated more than 2 fold compared to vehicle control [9]: 71
CO[C@H]1C[C@@H]2CC[C@@H](C)[C@@](O)(O2)C(=O)C(=O)N2CCCC[C@H]2C(=O)O[C@H]([C@H](C)C[C@@H]2CC[C@@H](O)[C@H](OC)C2)CC(=O)[C@H](C)/C=C(\C)[C@@H](O)[C@@H](OC)C(=O)[C@H](C)C[C@H](C)/C=C/C=C/C=C/1C [rapamycin] |  |  |  | CD27 expression, relative MFI (vehicle defined as 1) [5]: approximately 2 fold; total number of genes down-regulated more than 2 fold compared to vehicle control [9]: 284; total number of genes up-regulated more than 2 fold compared to vehicle control [9]: 215
Diethylenetriaminepentaacetic acid, penta sodium | CD8 | increased | CD4 | number or ratio of cells co-expressing CCR7 and CD62L [2]: increased
